Results on 15 compounds are retold here after US11180657B2, “Polysulfonated fluorescence dyes” (ATTO-TEC GmbH, priority 2017, dated 2021).

What all share (format): physicochemical
The target of one series is T1, streptavidin (Streptomyces avidinii, UniProt P22629).
T1 construct: purchased IBA
Description: Fluorescence quantum yield of the dye after coupling to streptavidin, relative to the uncoupled dye. As to conditions: streptavidin conjugate. The source says: The average number of dye molecules per biomolecule is expressed by the “degree of labeling” (DOL). […] Since the dye also absorbs in UV, the (total) absorption measured there must still be corrected with the absorption of the dye at this wavelength in order to obtain the actual biomolecule absorption. For this purpose, with commercial dyes, so-called CF values (correction factor values) are given, which describe the ratio of absorptions of the dye at the longwave maximum and at 260 nm or 280 nm.
From the thus obtained (individual) absorptions of dye and biomolecule in the conjugate, taking into consideration the two extinction coefficients, the quotient is formed, which directly indicates the molecular concentration ratio and thus the mean number of dye molecules per biomolecule (“degree of labeling,” DOL).
The compounds listed in Table 1 belong to the class of rhodamines with the same chromophore system. In an aqueous solution at room temperature they all have a comparably high fluorescence quantum yield of about 90%. […] Thus with established marking procedures, a much better detection reliability is achieved.
2 mg of streptavidin (IBA, content approx. 75%) are dissolved under cautious swirling in a glass vial with 1 ml of PBS buffer (pH 7.4) and 50 μl of a 0.2 M sodium hydrogen carbonate solution, which is set to a pH of 9 with sodium hydroxide. The clear solution has a pH-value of 8.3.
40.5 μl of a solution of 170 μg of compound 7 in 50 μl of dry DMSO are added; this corresponds to a dye-streptavidin ratio of 4:1.
The reaction solution is kept for two hours at room temperature and then kept overnight in the refrigerator at 4° C.
Purification is performed in the usual manner over superfine Sephadex G25 (column length 40 cm, diameter 2.5 cm) with PBS buffer as the eluent. The first colored zone contains the streptavidin conjugate.
The DOL can be calculated from the absorption spectrum of the conjugate fraction by the known procedure.

Series [1] can be described thus: Absorption maximum of the dye. The source says:
(§1) Examples of the compounds according to the invention are listed in Tables 2-6, where the structures as well as the absorption and fluorescence maxima are indicated. The spectra of selected compounds are shown FIGS. 5-18.

A short description of series [2]: Lactone or pseudobase formation in aqueous weakly alkaline solution. As to conditions: aqueous weakly alkaline solutions; reversible. The source says:
Normally such lactones are adequately stabilized only in aprotic solvents such as acetone or chloroform. In protic solvents the carboxyl group is deprotonated and a slightly more short-wave absorbing and fluorescent zwitterion is formed. In the exemplary compounds, however, colorless compounds are formed due to the strong electron attraction of the indicated substituents, due to internal ester formation and the associated interruption of the conjugated system. If the carboxyl group is not free but is present as an ester or tertiary amide, so-called pseudobases are formed, through nucleophilic attack (hydroxide ions etc.) at the central carbon atom, which is stronger positivized by the electron-attracting substituents, which pseudobases are likewise colorless due to the interruption of the conjugated system. Both reactions are reversible; by changing the pH value, the dielectric constant (“polarity”) and/or the capability of hydrogen bridge bonding (“proticity”), the dye can be restored. Therefore such compounds can in principle be used as probes for the properties of their direct environment: Depending on the milieu, the molecules are present in colorless or colored form. Associated therewith is also a sort of fluorogenicity, because the longwave fluorescence appears only in the dye form.

Series [3] in a line: Fluorescence maximum of the dye. As to conditions: solvent PBS pH 7.4.
Text: as §1

The nature of series [4]: Fluorescence quencher property (dye itself not fluorescent). The source says: A particular subgroup of the compounds according to the invention is fluorescence quenchers. These dyes are not fluorescent themselves, but can act as acceptors for the emission of fluorescent compounds. A widespread area of use of such quenchers is for instance the measurement of the geometry (distances, size, and arrangement of molecular groups) or the reactivity (enzyme activity, reaction speeds, etc.) using Förster resonance energy transfer (FRET). The fluorescence of the donor can only appear when the distance between donor and acceptor exceeds a critical value. Below this distance, the fluorescence of the donor is quenched by the acceptor (=quencher) which is not fluorescent by itself. An overview of the bioanalytical applications of the FRET technology is provided for example by A. Roda, M. Guardigli, E. Micheline, M. Mirasoli, Nanobioanalytical luminescence: Förster-type energy transfer methods, Anal. Bioanal. Chem. 393, 2009, 109-123.
Examples of quenchers according to the invention are compounds 14, 15, 16 and 17. These rhodamines represent a further development of the dyes designated as “violamines” because of their magenta-colored solutions, see for example H. E. Fierz-David, Künstliche Organische Farbstoffe [Artificial Organic Dyes], Springer-Verlag, Berlin, 1926, p. 276ff. However, also the structure of other dye classes may be modified in this way. Examples according to the invention include compounds 49, 50 and 51 from the class of carbopyronines.

Marks after values point to notes of the source that are not given here.

T1 sequence (P22629 38-163 limits assumed): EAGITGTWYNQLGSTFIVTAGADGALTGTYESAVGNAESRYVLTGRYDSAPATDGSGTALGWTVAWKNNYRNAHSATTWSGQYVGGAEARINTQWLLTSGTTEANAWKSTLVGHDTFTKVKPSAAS

In the case of `CN(CCCC(=O)O)C(=O)c1ccccc1-c1c2cc(S(=O)(=O)O)/c(=N/Cc3ccc(S(=O)(=O)O)cc3S(=O)(=O)O)cc-2oc2cc(NCc3ccc(S(=O)(=O)O)cc3S(=O)(=O)O)c(S(=O)(=O)O)cc12` [Compound 6], the “Fluorescence quantum yield of the dye following coupling to streptavidin in comparison with the uncoupled dye” value (from here on “Fluorescence quantum yield”) is 42% at streptavidin (DOL 2.5, PBS-buffer 25° C.) and 37% on streptavidin (DOL 5.5, PBS-buffer 25° C.). The λabs in series [1] (solvent water/acetonitrile 1:1) is recorded as 534^c nm. In series [2], the “formation of colorless lactone or pseudobase” value (“formation” for short) is recorded as “easily form a lactone or pseudobase”. In addition, the λfl in series [3] is 559^b nm.

As for `O=C(O)C1CCCN1C(=O)c1ccccc1-c1c2cc(S(=O)(=O)O)/c(=N/Cc3ccc(S(=O)(=O)O)cc3S(=O)(=O)O)cc-2oc2cc(NCc3ccc(S(=O)(=O)O)cc3S(=O)(=O)O)c(S(=O)(=O)O)cc12` (centres unmarked) [Compound 10], in series [1] (solvent water/acetonitrile 1:1), the λabs is recorded as 534^c nm. Besides, in series [2], the “formation” value was “easily form a lactone or pseudobase”. Moreover, the λfl in series [3] is on record as 556^b nm.

In the case of `CN(CCCC(=O)O)C(=O)c1ccccc1-c1c2cc/c(=N\c3ccc(S(=O)(=O)O)cc3)c(S(=O)(=O)O)c-2oc2c(S(=O)(=O)O)c(Nc3ccc(S(=O)(=O)O)cc3)ccc12` [Compound 17], in series [1] (solvent water/acetonitrile 1:1), the λabs is listed as 555^c nm. For the same compound, in series [4], the “fluorescence quencher (not fluorescent itself, acceptor for emission of fluorescent compounds)” value was “quenchers”.

As to `O=C(O)c1ccccc1-c1c2cc(S(=O)(=O)O)/c(=N/c3ccc(S(=O)(=O)O)cc3)cc-2oc2cc(Nc3ccc(S(=O)(=O)O)cc3)c(S(=O)(=O)O)cc12` [Compound 15], the λabs in series [1] (solvent water/acetonitrile 1:1) is listed as 558^c nm. In series [4], the “fluorescence quencher (not fluorescent itself, acceptor for emission of fluorescent compounds)” value was “quenchers”.

In the case of `CN(CCCC(=O)O)C(=O)c1ccccc1-c1c2cc/c(=N/CCc3ccc(S(=O)(=O)O)cc3)c(S(=O)(=O)O)c-2oc2c(S(=O)(=O)O)c(NCCc3ccc(S(=O)(=O)O)cc3)ccc12` [Compound 26], at streptavidin (DOL 7.0, PBS-buffer 25° C.), the “Fluorescence quantum yield” value is given as 8%. Further, in series [1] (solvent water/acetonitrile 1:1), the λabs was 538^c nm. Besides, the λfl in series [3] is recorded as 558^b nm.

On to `CN(CCCC(=O)NCCCCCC(=O)O)C(=O)c1ccccc1-c1c2cc(S(=O)(=O)O)/c(=N/Cc3ccc(S(=O)(=O)O)cc3S(=O)(=O)O)cc-2oc2cc(NCc3ccc(S(=O)(=O)O)cc3S(=O)(=O)O)c(S(=O)(=O)O)cc12` [Compound 12], for which, on streptavidin (DOL 3.0, PBS-buffer 25° C.), the “Fluorescence quantum yield” value is 27%. The λabs in series [1] (solvent water/acetonitrile 1:1) is 536^c nm. Also, in series [2], the “formation” value is listed as “easily form a lactone or pseudobase”. The λfl in series [3] is listed as 555^b nm.

In the case of `CN(CCCC(=O)O)C(=O)c1ccccc1-c1c2cc(S(=O)(=O)O)/c(=N/CCc3ccc(S(=O)(=O)O)cc3S(=O)(=O)O)cc-2oc2cc(NCCc3ccc(S(=O)(=O)O)cc3S(=O)(=O)O)c(S(=O)(=O)O)cc12` [Compound 25], the “Fluorescence quantum yield” value on streptavidin (DOL 2.8, PBS-buffer 25° C.) is listed as 45%; at streptavidin (DOL 6.7, PBS-buffer 25° C.) it was 35%. The λabs in series [1] (solvent PBS pH 7.4) is reported as 539^b nm. In series [2], the “formation” value is “easily form a lactone or pseudobase”. Also, the λfl in series [3] is on record as 560^b nm.

As to `CC1(C)c2cc(Nc3ccc(S(=O)(=O)O)cc3)ccc2C(c2c(F)c(F)c(SCC(=O)O)c(F)c2F)=c2cc3c(cc21)=[N+](Cc1ccc(S(=O)(=O)O)cc1S(=O)(=O)O)C(C)(C)CC3CS(=O)(=O)O` (centres unmarked) [Compound 51], the λabs in series [1] (solvent PBS pH 7.4) is reported as 650^b nm. In addition, the “fluorescence quencher (not fluorescent itself, acceptor for emission of fluorescent compounds)” value in series [4] is reported as “quenchers”.

For `CC1(C)c2cc(Nc3ccc(S(=O)(=O)O)cc3)ccc2C(c2c(F)c(F)c(SCC(=O)O)c(F)c2F)=c2cc3c(cc21)=[N+](Cc1ccc(S(=O)(=O)O)cc1S(=O)(=O)O)CCC3` [Compound 49], the λabs in series [1] (solvent PBS pH 7.4) is 648^b nm. For the same compound, the “fluorescence quencher (not fluorescent itself, acceptor for emission of fluorescent compounds)” value in series [4] is “quenchers”.

As for `CN(CCCC(=O)O)C(=O)c1ccccc1-c1c2cc(S(=O)(=O)O)/c(=N/CCc3ccc(S(=O)(=O)O)cc3)cc-2oc2cc(NCCc3ccc(S(=O)(=O)O)cc3)c(S(=O)(=O)O)cc12` [Compound 19], the “Fluorescence quantum yield” value on streptavidin (DOL 5.6, PBS-buffer 25° C.) turned out to be 10%. Also, the λabs in series [1] (solvent water/acetonitrile 1:1) is listed as 537^c nm. Also, in series [2], the “formation” value is reported as “easily form a lactone or pseudobase”. For the same compound, the λfl in series [3] is reported as 560^b nm.

`CC1=CC(C)(C)[N+](Cc2ccc(S(=O)(=O)O)cc2S(=O)(=O)O)=c2cc3c(cc21)=C(c1c(F)c(F)c(SCC(=O)O)c(F)c1F)c1ccc(Nc2ccc(S(=O)(=O)O)cc2)cc1C3(C)C` [Compound 50]: the λabs in series [1] (solvent PBS pH 7.4) is given as 669^b nm. The “fluorescence quencher (not fluorescent itself, acceptor for emission of fluorescent compounds)” value in series [4] is on record as “quenchers”.

Turning to `O=C(O)c1ccccc1-c1c2cc/c(=N/c3ccc(S(=O)(=O)O)cc3)cc-2oc2cc(Nc3ccc(S(=O)(=O)O)cc3)ccc12` [Compound 14], in series [1] (solvent PBS pH 7.4), the λabs is on record as 560^b nm. In series [4], the “fluorescence quencher (not fluorescent itself, acceptor for emission of fluorescent compounds)” value was “quenchers”.

In the case of `O=C(O)C1CCN(C(=O)c2ccccc2-c2c3cc(S(=O)(=O)O)/c(=N/Cc4ccc(S(=O)(=O)O)cc4S(=O)(=O)O)cc-3oc3cc(NCc4ccc(S(=O)(=O)O)cc4S(=O)(=O)O)c(S(=O)(=O)O)cc23)CC1` [Compound 11], the λabs in series [1] (solvent water/acetonitrile 1:1) was 529^c nm. Also, the “formation” value in series [2] is on record as “easily form a lactone or pseudobase”. Besides, the λfl in series [3] is listed as 550^b nm.

Consider `CN(CCCC(=O)O)C(=O)c1ccccc1-c1c2cc(S(=O)(=O)O)/c(=N/c3ccc(S(=O)(=O)O)cc3)cc-2oc2cc(Nc3ccc(S(=O)(=O)O)cc3)c(S(=O)(=O)O)cc12` [Compound 16], for which the λabs in series [1] (solvent water/acetonitrile 1:1) is 566^c nm. For the same compound, the “fluorescence quencher (not fluorescent itself, acceptor for emission of fluorescent compounds)” value in series [4] is “quenchers”.

As to `CN(CCCC(=O)O)C(=O)c1ccccc1-c1c2cc(S(=O)(=O)O)/c(=N/CCc3ccc(S(=O)(=O)O)cc3)cc-2oc2cc(N)c(S(=O)(=O)O)cc12` [Compound 20], the λabs in series [1] (solvent water/acetonitrile 1:1) is 528^c nm. Besides, the “formation” value in series [2] is “easily form a lactone or pseudobase”. Also, the λfl in series [3] is 550^b nm.
